Measurements reported in patent US12030940B2, “Immunotherapeutic tumor treatment method” (Nektar Therapeutics, priority 2017, dated 2024).

Test system: B16F10 mouse melanoma tumors
Assay: Immune cells in tumor microenvironment by flow cytometry, subcutaneous B16F10 melanoma mice
Type: in vivo

## aldesleukin
5 and 7 days after treatment initiation
  activated natural killer (NK) cells: increased
By day 7, single dose RSLAIL-2 or 5 doses aldesleukin
  ratio of CD8/Treg in the tumor: 18
Relative to vehicle
  total and memory CD8 T cells as percentage of tumor-infiltrating lymphocytes: transient
Relative to vehicle, days 5, 7, 10
  percentage of Tregs (FoxP3+ subset of CD4) in tumor: modest
